In this assay the test system is Human E-selectin/Ig chimera. Briefly: Competitive binding assay, sLe^a-polyacrylamide conjugate to immobilized E-selectin. The following applies: sLe^a-polyacrylamide/streptavidin-HRP conjugate. Here is the method: FIG. 21 relates to an experiment carried out to determine the competitive binding activity (IC50) of GMI-1359 against E-selectin and CXCR4. GMI-1359 was assessed for inhibition of sialyl Le^X binding to immobilized E-selectin and α-CXCR4 antibody binding to Raji cells.
The inhibition assay to screen GMI-1359 as an antagonist of E-selectin was a competitive binding assay, which allowed the determination of IC50 values. Human E-selectin/Ig chimera was immobilized by incubation at 37° C. for 2 hour in 96-well microtiter plates. To reduce nonspecific binding, BSA was added to each well and incubated at room temperature for 2 hours. After incubation with E-selectin/Ig chimera, the plate was washed and serial dilutions of the test compounds were added to the wells in the presence of conjugates of biotinylated, sLe^a-polyacrylamide with streptavidin/horseradish peroxidase and incubated for 2 hours at room temperature. To determine the amount of sLe^a bound to immobilized E-selectin after washing, the peroxidase substrate, 3,3′,5,5′ tetramethylbenzidin (TMB) was added. After 3 minutes, the enzyme reaction was stopped by the addition of H3PO4, and the absorbance of light at a wavelength of 450 nm was determined. […]

This is an account of results in patent publication US11433086B2, “Combination of T-cell checkpoint inhibitors with inhibitors of e-selectin or CXCR4, or with heterobifunctional inhibitors of both E-selectin and CXCR4” (GlycoMimetics, Inc., priority 2016, dated 2022).

Take `CCC1CC(C(=O)NCCNCc2ccc(CN3CCCNCCNCCCNCC3)c(Br)c2)CC(OC2OC(CO)C(O)C(O[C@@H](CC3CCCCC3)C(=O)O)C2NC(C)=O)C1OC1OC(C)C(O)C(O)C1O` (stereo partly shown) [GMI-1359]: the “inhibition of ligand binding to E-selectin” value is recorded as “inhibits ligand binding”.
